Key:
Human SLC6A14 = biological target: T1, Human SLC6A14 (Homo sapiens, UniProt Q9UN76); assay: SLC6A14 transport function in X. laevis oocytes (two-microelectrode voltage-clamp); assay type: cell-based; conditions: for Hill coefficient of Na+-activation kinetics (number of Na+ involved in the activation process): SLC6A14-mediated transport, amino acid 1 mM, Cl- constant at 100 mM, three oocytes; for inward currents on perifusion of SLC6A14-expressing oocytes: amino acid 100 M (so in the source), in the presence of NaCl
T1 construct: expressed in transfected cells; host or cells: Xenopus laevis oocytes, microinjected with human SLC6A14 cRNA
T1 sequence (Q9UN76 1-642): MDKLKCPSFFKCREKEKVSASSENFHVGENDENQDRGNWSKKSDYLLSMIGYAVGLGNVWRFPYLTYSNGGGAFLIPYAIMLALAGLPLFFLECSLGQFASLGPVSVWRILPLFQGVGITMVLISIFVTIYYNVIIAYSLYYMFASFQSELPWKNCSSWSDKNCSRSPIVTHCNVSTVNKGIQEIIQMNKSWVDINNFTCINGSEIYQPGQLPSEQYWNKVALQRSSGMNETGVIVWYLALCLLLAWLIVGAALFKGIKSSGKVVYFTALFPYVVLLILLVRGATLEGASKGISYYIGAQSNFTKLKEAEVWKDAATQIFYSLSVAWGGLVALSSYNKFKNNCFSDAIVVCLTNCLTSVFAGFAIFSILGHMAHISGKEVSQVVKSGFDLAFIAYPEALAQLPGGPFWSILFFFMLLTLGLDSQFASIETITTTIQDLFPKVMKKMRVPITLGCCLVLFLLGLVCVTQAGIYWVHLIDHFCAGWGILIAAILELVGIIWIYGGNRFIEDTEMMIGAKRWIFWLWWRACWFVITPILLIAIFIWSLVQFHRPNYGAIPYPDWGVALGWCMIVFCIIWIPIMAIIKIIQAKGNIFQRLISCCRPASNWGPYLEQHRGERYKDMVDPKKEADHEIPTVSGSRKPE
Text: FIGS. 3A and 3B. Natactivation kinetics of SLC6A14-mediated transport of leucine (FIG. 3A) and arginine and glutamine (FIG. 3B). Human SLC6A14 was expressed heterologously in X. laevis oocytes by microinjection of cRNA. Four days following injection, oocytes were used for electrophysiological studies using the two-microelectrode voltage-clamp method. […] Since the expression levels varied from oocyte to oocyte resulting in varying magnitudes of amino acid-induced currents, the currents were normalized by taking the magnitude of the currents induced at 100 mM Na^+ as 1 in each oocyte and calculating the magnitude of the currents induced at other concentrations of Na^+ as a fraction of this maximal current. The experiments were done with three different oocytes and the results are given as means±SE. Insets, Hill plots.
FIG. 4. Cl^−-activation kinetics of SLC6A14-mediated transport of leucine, arginine, and glutamine. […] The experiments were done with three different oocytes and the results are given as means±SE.
FIGS. 5A to 5C. Blockade of SLC6A14-mediated transport of leucine (FIG. 5A), glutamine (FIG. 5B), and arginine (FIG. 5C) by α-MT. Oocytes injected with human SLC6A14 cRNA were perifused with 100 µM leucine, 100 μM glutamine, or 100 μM arginine under varying experimental conditions as indicated.
Analysis of SLC6A14 transport function in X. laevis oocytes. SLC6A14-mediated transport of leucine, glutamine, and arginine and its blockade by α-MT were studied using the X. laevis oocyte heterologous expression system as described previously (Hatanaka et al., 2001, J Clin Invest; 107:1035-1043; and Karunakaran et al., 2008, Biochem J; 414:343-355). Human cloned SLC6A14 cDNA was used in these studies.

MCF7 cells [1] = assay: Analysis of autophagy (LC3 localization, electron microscopy, autophagosomal proteolysis, GFP-LC3); assay type: cell-based, human; conditions: 48 h
Procedure: FIGS. 6A to 6C. Effects of SLC6A14 blockade with α-MT in breast cancer cells. In FIG. 6A, MCF10A (a non-malignant mammary epithelial cell line), MCF7 (an ER-positive breast cancer cell line), and MB231 (an ER-negative breast cancer cell line) cells were treated with or without 2.5 mM α-MT for 24, 48, or 72 h and then used for analysis of asparagine synthetase (ASNS) and CHOP mRNA levels. In FIG. 6B, MCF7, MB231 and MCF10A cells were treated with or without 2.5 mM α-MT for 48 h and then used for immunocytochemical analysis of the constitutively expressed LC-3. In FIG. 6C, MCF7 cells were treated with (“b” and “c”) or without (“a”) α-MT (2.5 mM) for 48 h and then used for electron microscopy. Arrows indicate sequestration of cytoplasm and organelles in pre-autophagosomes and autophagosome, and the asterisk indicates condensed chromatin. N, nucleus.
FIGS. 7A and 7B. Induction of autophagy in MCF7 cells by α-MT. […] The concentrations of α-MT and 3-MA, when present, were 2.5 mM and 10 mM. The treatment time was 48 h. The extent of proteolysis was determined by the radioactivity present in the protein-free supernatant. […] In FIG. 7B, MCF7 cells were transfected with an GFP-LC3 expression plasmid, and 24 h later, the cells were treated with or without α-MT (2.5 mM) in the presence or absence of 3-MA (10 mM) for 48 h. At the end of the treatment, cells were fixed, and the percent of cells with punctate localization of the ectopically expressed GFP-LC3 was quantified. “a” represents compared to control; “b” represents compared to treatment with α-MT alone; and “c” represents compared to treatment with […]; *, p<0.001.
Analysis of autophagy. Autophagy was analyzed as described previously (Periyasamy-Thandavan et al., 2010, Autophagy; 6:19-35; and Samaddar et al., 2008, Mol Cancer Ther; 7:2977-2987) by monitoring the localization pattern of constitutively expressed LC3 as well as that of ectopically expressed GFP-LC3. In the case of the constitutively expressed LC3, cells were treated without or with α-MT, and then used for immunocytochemical analysis of LC3 localization pattern. For ectopically expressed LC3, cells were transfected with a GFP-LC3 expression plasmid. Briefly, cells were plated on a coverslip to reach ˜50% confluence and transfection of these cells was done with 1 μg of the plasmid using FuGENE transfection reagent (Roche, Nutley, N.J.). […] At the end of the treatment, cells were fixed with 4% paraformaldehyde and examined by fluorescence microscopy to count the number of cells with punctate GFP-LC3. Autophagosomal proteolysis was quantified as described previously (Periyasamy-Thandavan et al., 2010, Autophagy; 6:19-35). […]

MCF7 cells [2] = assay: Apoptotic cell death by annexin V labeling; assay type: cell-based, human; conditions: 48 h
Procedure: (§1) FIGS. 9A to 9D. Influence of α-MT on mTOR activity In FIG. 9A, MCF7 and MB231 cells were treated without or with α-MT (2.5 mM) for 24 h, 48 h, or 72 h, and then the cell lysates were used for western blot. Influence of α-MT with or without 3-MA on cell death. In FIG. 9B, MCF7, MB231, and MCF10A cells were treated for 48 h without or with α-MT (2.5 mM), 3-MA (10 mM), or α-MT (2.5 mM) plus 3-MA (10 mM), and then analyzed for cell death by propidium iodide (PI) staining and FACS-based cell cycle analysis. In FIG. 9C, MCF7 cells were treated for 48 h without or with α-MT (2.5 mM), 3-MA (10 mM), or α-MT (2.5 mM) plus 3-MA (10 mM), and then analyzed for apoptotic cell death by annexin V labeling. In FIG. 9D, MCF7 and MB231 cells were treated without or with 2.5 mM α-MT for 24 h, 48 h, or 72 h. Cell lysates were then used for western blot analysis of lamin A degradation product using an antibody that recognizes specifically the proteolytic cleavage product. β-Actin was used as an internal control.
(§2) Apoptosis assay. Fluorescence-activated cell sorting (FACS) was used to monitor cell death. MCF7 cells were treated with or without α-MT, 3-MA, or α-MT plus 3-MA. Control and treated cells were then fixed in 50% ethanol, treated with 0.1% sodium citrate, 1 mg/ml RNase A, and 50 μg/ml propidium iodide, and then subjected to FACS analysis (FACS Caliber, Becton Dickinson). FITC-labeled annexin V was used to differentiate apoptotic cell death from necrotic cell death.

MCF10A cells = assay: Cell death by propidium iodide staining and FACS cell cycle analysis; assay type: cell-based, human; conditions: α-MT 2.5 mM and 3-MA 10 mM, either alone or together, 48 h
Procedure: as §1, §2

MB231 cells = assay: as above; assay type: cell-based, human; conditions: MB231, α-MT 2.5 mM and 3-MA 10 mM, either alone or together, 48 h
Procedure: as §1, §2

Row | Structure (SMILES) | Hill coefficient of Na+-activation kinetics (number of Na+ involved in the activation process) (Human SLC6A14) | inward currents on perifusion of SLC6A14-expressing oocytes (Human SLC6A14) | inhibition of α-MT-induced proteolysis of 14C-labeled proteins (MCF7 cells [1]; MCF7, cotreatment 3-MA 10 mM with α-MT 2.5 mM) | block of autophagy induced by α-MT (MCF7 cells [1]; MCF7 transfected with GFP-LC3, 3-MA 10 mM plus α-MT 2.5 mM) [%] | apoptotic cell death by annexin V labeling (MCF7 cells [2]; MCF7, 3-MA 10 mM combined with α-MT 2.5 mM, compared with either agent alone) | apoptotic cell death by annexin V labeling (MCF7 cells [2]; MCF7, single agent (α-MT 2.5 mM or 3-MA 10 mM)) | effect on cell death (MCF10A cells) | effect on cell death (MB231 cells)
1 | CC(C)C[C@H](N)C(=O)O [leucine] | 2.2 | induced inward currents |  |  |  |  |  | 
2 | NC(=O)CC[C@H](N)C(=O)O [glutamine] | 2.4 | induced inward currents |  |  |  |  |  | 
3 | N=C(N)NCCC[C@H](N)C(=O)O [arginine] | 2.1 | induced inward currents |  |  |  |  |  | 
4 | Cn1cnc(N)c2ncnc1-2 [3-MA, 3-methyladenine, reference compound] |  |  | inhibited significantly | > 90 | much greater | significant apoptosis | very little, if any, effect | very little, if any, effect
